The test system of data set [1] is C. difficile toxin A-induced inflammation and secretion in rabbit ileal loops. It is filed as in vivo, New Zealand white rabbits. The following applies: ATL 313 100 nM with alanyl-glutamine 25 mM; 5 hours. How it is done: Materials and Methods: New Zealand white rabbits weighing about 2 kg are fasted overnight. Under anesthesia with ketamine (60-80 mg/kg) and xylazine (5-10 mg/kg) administered intramuscularly, a midline abdominal incision is performed to expose the small bowel. After the ileum is flushed, four-cm loops are ligated using double ties with a 1 cm interval between loops. Each of the control loops is injected intraluminally with 1 mL solution of PBS with either C. difficile toxin A (toxin A) (Techlab, Blacksburg, Va.) at 10 μg/mL. Loops from another set of rabbits are treated with the adenosine A2A agonists, JMR 193 (ATL 193) (10 nM, 100 nM, or 1 uM doses) or ATL 146e ([…], 100 nM, 1 uM doses) immediately before the enterotoxin is administered. In addition a rabbit is treated with A2A agonist, ATL 313 (100 nM), alone and another rabbit treated with ATL 313 with alanyl-glutamine (25 mM). After 5 hours of incubation, the ligated small intestinal loops are removed. The length of each ligated ileal segment is measured and intraluminal fluid was quantified. Volume to length ratio, V/L (mL/cm), per loop is calculated. Samples of intestinal stained with hematoxylin-eosin and graded from 0 (none) to 4 (worst) based on the degree of mucosal disruption, increase in cellularity and intensity of vascular congestion.

The test system of data set [2] is Clostridium difficile toxin A (TxA)-induced cell death. Kind of data set: Cell death in intestinal sections (TUNEL method). The following applies: ATL 313 + TxA. It is filed as in vivo, mice. The protocol:
(§1) Mice were fasted overnight, but allowed access to water, and then anesthetized with ketamine and xylazine (60 and 5 mg/Kg intramuscularly, respectively). Through a midline laparotomy, one 4-cm ileal loop was ligated and injected with either 0.1 ml of PBS pH 7.4 (control) or buffer containing TxA (1-10 μg). The abdomen was closed, and the animals were allowed to regain consciousness. Three hours after administration of TxA, mice were sacrificed and the intestinal loops were removed. The loop length, weight, and fluid volume were recorded. A portion of the loop was frozen at −70° C. for measurement of myeloperoxidase (MPO) and ADA activities and TNF-α concentration. The remaining tissue was fixed in 10% formalin and embedded in paraffin, and sections were stained with hematoxylin and eosin for histological grading of ileal inflammation. Some mice were injected with ATL 313 ([…] final concentration) immediately followed by PBS or TxA (5 μg); another group was injected with ZM241385 (5 nM), the selective A2A AR antagonist, immediately followed by PBS or ATL 313 (5 nM)+TxA (5 μg) in the ileal loop. In another experiment, TxA (5 μg) was injected into the ileal loop, the abdomen was closed, and, 30 min later, the abdomen was reopened and ATL 313 (5 nM) administered. […]

In data set [3] the test system is Clostridium difficile toxin A-induced ADA activity. Kind of data set: ADA activity in ileal tissue and ileal secretion. It is filed as in vivo, mice. The following applies: ATL 313 in TxA-challenged animals. The protocol:
Mice were fasted overnight, but allowed access to water, and then anesthetized with ketamine and xylazine (60 and 5 mg/Kg intramuscularly, respectively). Through a midline laparotomy, one 4-cm ileal loop was ligated and injected with either 0.1 ml of PBS pH 7.4 (control) or buffer containing TxA (1-10 μg). The abdomen was closed, and the animals were allowed to regain consciousness. Three hours after administration of TxA, mice were sacrificed and the intestinal loops were removed. The loop length, weight, and fluid volume were recorded. A portion of the loop was frozen at −70° C. for measurement of myeloperoxidase (MPO) and ADA activities and TNF-α concentration. […]
The ADA assay is based on the measurement of ammonia produced during the deamination of adenosine by the method of Giusti (1974. Adenosine deaminase, p. 1092-1099. In H. U. Bergmeyer (Ed.), Methods of Enzymatic Analysis, vol. 2. Academic Press Inc., New York), with slight modifications. […] Following the addition of 600 μl of sodium hypochloride (11 mM) in 125 mM NaOH all tubes were again incubated at 37° C. for 30 min and read at 628 nm. The enzyme activity in the tissue and in the ileum contents was expressed as μmols of ammonium formed/mg of protein/hour and as μmols of ammonium formed/hour, respectively.

Data set [4] deals with Clostridium difficile toxin A-induced MPO activity. Kind of data set: MPO assay in ileal tissue (neutrophil accumulation). The data set is classed as in vivo, mice. How it is done:
as §1, with “loop.” for “loop. In another experiment, TxA (5 μg) was injected into the ileal loop, the abdomen was closed, and, 30 min later, the abdomen was reopened and ATL 313 (5 nM) administered.”
The extent of neutrophil accumulation in ileal tissue was estimated by measuring MPO activity assay. […] MPO activity in the resuspended pellet was assayed by measuring the change in absorbance at 450 nm using o-dianisidine dihydrochloride and 1% hydrogen peroxide. […]

The test system of data set [5] is Clostridium difficile toxin A-induced TNF-α production. Kind of data set: Quantification of TNF-α by ELISA in ileal tissue. The data set is classed as in vivo, mice. The settings on record: ATL 313 + TxA vs TxA only. How it is done: as §1, with “loop.” for “loop. In another experiment, TxA (5 μg) was injected into the ileal loop, the abdomen was closed, and, 30 min later, the abdomen was reopened and ATL 313 (5 nM) administered.”
Ileal tissue was harvested from animals in order to measure TNF-α concentration by enzyme-linked immunosorbent assay (ELISA). The results are expressed as pg/mL of TNF-α.
(In general: An ELISA detects its analyte on a solid surface through an enzyme-linked reagent.)

Data set [6] concerns Clostridium difficile toxin A (TxA)-induced histological alterations. In words: Histological grading of ileal inflammation, murine ileal loops. The data set is classed as in vivo, mice. The settings on record: for median injury score: median(range). How it is done: (§2) Mice were fasted overnight, but allowed access to water, and then anesthetized with ketamine and xylazine (60 and 5 mg/Kg intramuscularly, respectively). Through a midline laparotomy, one 4-cm ileal loop was ligated and injected with either 0.1 ml of PBS pH 7.4 (control) or buffer containing TxA (1-10 μg). The abdomen was closed, and the animals were allowed to regain consciousness. Three hours after administration of TxA, mice were sacrificed and the intestinal loops were removed. The loop length, weight, and fluid volume were recorded. A portion of the loop was frozen at −70° C. for measurement of myeloperoxidase (MPO) and ADA activities and TNF-α concentration. The remaining tissue was fixed in 10% formalin and embedded in paraffin, and sections were stained with hematoxylin and eosin for histological grading of ileal inflammation. Some mice were injected with ATL 313 ([…] final concentration) immediately followed by PBS or TxA (5 μg); another group was injected with ZM241385 (5 nM), the selective A2A AR antagonist, immediately followed by PBS or ATL 313 (5 nM)+TxA (5 μg) in the ileal loop. In another experiment, TxA (5 μg) was injected into the ileal loop, the abdomen was closed, and, 30 min later, the abdomen was reopened and ATL 313 (5 nM) administered.
The severity of inflammation was scored in coded slides by a pathologist on a scale of 1 (mild) to 3 (severe) for epithelial damage, edema, and neutrophil infiltration.

Data set [7] concerns murine ileal loops injected with Clostridium difficile toxin A (TxA). Kind of data set: TxA-induced enteritis in ligated murine ileal loops: loop weight and secretion volume. The data set is classed as in vivo, mice. How it is done:
For this study, 174 male Swiss mice, 25-30 g body weight, from the animal colony of the Federal University of Ceara were used. The animals received water and food ad libitum.
as §2

The mark [8] stands for this setting: ATL 313 5 nM alone, absence of TxA.
Setting [9] is: ATL 313 5 nM in loop immediately followed by TxA 5 μg, 3 h, vs TxA alone.

As for `COC(=O)N1CCC(CC#Cc2nc(N)c3ncn(C4OC(C(=O)NC5CC5)C(O)C4O)c3n2)CC1` (stereo not shown) [ATL 313, 4-{3-[6-Amino-9-(5-cyclopropylcarbamoyl-3,4-dihydroxy-tetrahydro-furan-2-yl)-9H-purin-2-yl]-prop-2-ynyl}-piperidine-1-carboxylic acid methyl ester], the “toxin A-induced inflammation” value in data set [1] was “improved inflammation”. Also, the “toxin A-induced secretion (volume to length ratio)” value in data set [1] is “dramatically improved secretion”. The mucosal cell death result in data set [2] is given as “reduced number for cell death similar to the level of PBS control”. Besides, the “ADA activity in ileal secretion” value in data set [3] is recorded as “significantly reduced (P<0.05)”. The “ADA activity in ileal tissue” value in data set [3] is given as “significantly reduced (P<0.05)”. Moreover, the “MPO activity in ileal tissue” value in data set [4] (ATL 313 5 nM alone, PBS=1.6±0.6) is reported as 2.1±0.2 U/mg; in data set [4] (ATL 313 5 nM then TxA 5 μg), 1.0±0.6 U/mg. The “TNF-α production in ileal tissue” value in data set [5] is listed as “significantly reduced (P<0.05)”. For the same compound, the histological injury score in data set [6] (ATL 313 30 min after injection of TxA 5 μg) was 1(0-2). Also, the median injury score in data set [6] (ATL 313 + TxA 5 μg/loop) is given as 1(0-2); in data set [6] (compound alone, no TxA) it was 0(0-0). Moreover, the “secretion volume/ileal loop length ratio” value in data set [7] (setting [8]) is listed as “did not alter”; in data set [7] (setting [9]), “significantly (P<0.05) reduced”. The figures for the “weight/ileal loop length ratio” value in data set [7] (setting [8]), in data set [7] (ATL 313 5 nM given 30 min after TxA 5 μg) and in data set [7] (setting [9]) were “did not alter”, 28.3 ± 1.4 mg/cm and “significantly (P<0.05) reduced”, respectively.

(Values after patent US20080312160A1, “METHOD OF TREATING ENTERITIS, […], AND DIARRHEA FROM C. DIFFICILE WITH AN A2A ADENOSINE RECEPTOR AGONIST” (priority 2007, published 2008).)
